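Dose response: 5 concentrations. Exposure: 48 h. Format: 96-well plates. Endpoint: linear interpolation; highest concentration if not reached. Here, GI50 denotes the concentration required for 50% inhibition of growth. TGI: total growth inhibition.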
Key:
Assay in all cases: NCI anticancer screen, dose series, 48 h
A549 NSCLC = tested on: A549 NSCLC
SF-295 CNS = tested on: SF-295 CNS
CCRF-CEM leukemia = tested on: CCRF-CEM leukemia
TK-10 renal = tested on: TK-10 renal
IGROV1 ovarian = tested on: IGROV1 ovarian
OVCAR-8 ovarian = tested on: OVCAR-8 ovarian
MCF7 breast = tested on: MCF7 breast
SF-268 CNS = tested on: SF-268 CNS
OVCAR-5 ovarian = tested on: OVCAR-5 ovarian
MOLT-4 leukemia = tested on: MOLT-4 leukemia

Row | SMILES | TGI (A549 NSCLC) [µM] | TGI (SF-295 CNS) [µM] | TGI (CCRF-CEM leukemia) [µM] | TGI (TK-10 renal) [µM] | TGI (IGROV1 ovarian) [µM] | TGI (OVCAR-8 ovarian) [µM] | TGI (MCF7 breast) [µM] | TGI (SF-268 CNS) [µM] | TGI (OVCAR-5 ovarian) [µM] | TGI (MOLT-4 leukemia) [µM] | GI50 (A549 NSCLC) [µM] | GI50 (SF-295 CNS) [µM] | GI50 (CCRF-CEM leukemia) [µM] | GI50 (TK-10 renal) [µM] | GI50 (IGROV1 ovarian) [µM] | GI50 (OVCAR-8 ovarian) [µM] | GI50 (MCF7 breast) [µM] | GI50 (SF-268 CNS) [µM] | GI50 (OVCAR-5 ovarian) [µM] | GI50 (MOLT-4 leukemia) [µM]
1 | NC(N)=N/N=C/c1cc(Cl)cc(Cl)c1O | > 100 | > 100 | > 100 | > 100 | > 100 | > 100 | > 100 | > 100 | > 100 | > 100 |  |  |  |  |  |  |  |  |  | 
2 | CN1CCc2c(Sc3ccc(C(=O)NO)cc3)c3ccccc3n2C1 | 12.9 | 4.84 | > 24.9 | 8.19 | 9.06 | 5.42 | 13.6 | 4.31 | 10.7 | 7.01 | 3.29 | 2.13 | 1.87 | 2.62 | 2.84 | 1.69 | 2.7 | 1.85 | 2.6 | 2.53
3 | Cc1sc2nc(NCCc3c[nH]c4ccc(Cl)cc34)[nH]c(=O)c2c1C | 5.09 | 13.4 | 14.2 | 11.5 | 13.1 | 5.69 | 7 | 8.13 | 11.7 | 7.27 | 2.13 | 3.53 | 2.63 | 3.5 | 3.12 | 2.12 | 2.47 | 2.28 | 2.97 | 2.22
4 | Nc1nc(Nc2ccccc2)c2ncn(Cc3cc4c(cc3Br)OCO4)c2n1 | 11.5 | 7.27 |  | 18.1 | 60.4 | 0.832 | 31.9 | 45.3 | > 80.3 | > 100 | 0.0491 | 0.037 | 0.0431 | 0.114 | 0.105 | 0.17 | < 0.01 | 0.128 | 0.282 | 0.196
5 | CN(C)c1ccc2nc3ccc(=O)cc-3sc2c1 | 3.02 | 10.9 | 58.1 | > 77.7 | > 54.5 | > 100 | 5.75 | > 100 | > 70.2 | 26 | 0.312 | 1.52 | 0.694 | 13.8 | 2.48 | 0.651 | 0.445 | 5.16 | 4.68 | 1.4
6 | N#CC1Nc2ccccc2[C@@H](O)C1O (some centres undefined) | > 100 | > 100 | > 100 | > 100 | > 100 | > 100 | > 100 | > 100 | > 100 | > 100 |  |  |  |  |  |  |  |  |  | 
7 | COC(=O)[C@@H](NC(=O)[C@@H](OC)[C@@H]1Cc2cc3cc(OC4CC(OC5CC(O)C(O)C(C)O5)C(O)C(C)O4)c(C)c(O)c3c(O)c2C(=O)[C@H]1OC1CC(OC2CC(OC3CC(C)(O)C(O)C(C)O3)C(O)C(C)O2)C(O)C(C)O1)C(C)C (some centres undefined) | > 32.5 | 2.11 | > 32.5 | > 32.5 | > 32.5 | > 32.5 | > 32.5 | > 32.5 | 10.8 | 5.24 | 0.141 | 0.0934 | 0.122 | 0.208 | 0.101 | 0.15 | 0.0538 | 0.172 | 0.265 | 0.136
8 | COc1ccc(C2C(C#N)=C(N)OC3=C2COc2ccc(F)cc23)cc1OC (centres undefined) | 63.8 | 67.5 | > 100 | 60.4 | > 100 | > 100 | > 100 | > 100 | 80.9 | > 100 | 27.2 | 27.5 | 47.5 | 19.4 | 28.7 | 28.5 | 32.9 | 33.3 | 23.7 | 49.5
9 | OCCCCC#Cc1ccccc1C#Cc1cccc(O)c1 | 32.2 | 41.7 | 48.6 | 38.2 | 33.3 | 36.9 | > 100 | 42.6 | 32.1 | 40.7 | 15.7 | 21 | 18.8 | 19.2 | 16.8 | 18.2 | 35.7 | 18.5 | 16.9 | 18
10 | O=C(Nc1ccc(Cl)cc1F)c1cc(Br)ccc1O | > 100 | 3.51 | > 27.6 | > 53.1 | > 100 | > 37.4 | > 100 | 9.66 | > 100 | 7.87 | 1.42 | 1.65 | 2.37 | 4.15 | 0.642 | 1.13 | 1.26 | 0.745 | 3.71 | 2.34
11 | Nc1ccncc1/C=C1/C(=O)Nc2ccccc21 | > 100 | 79 | > 100 | > 100 | > 100 | > 100 | > 100 | > 100 | > 100 | > 100 | 56.9 | 28.2 | 68.3 | 54.7 | 29 | 62.5 | 26.6 | 28 | 75.3 | 37.3
